We go through two molecules from patent US20200316067A1, “COMBINATION OF RAF INHIBITORS AND TAXANES” (DOT Therapeutics-1, Inc., priority 2014, published 2020).

The test system of series [1] is tumor cells with N-Ras mutation and K-Ras mutation, B-Raf wild type genetic background. The series is described as follows: Activity against tumor cells with MAPK pathway activation by upstream signaling. In kind it is cell-based.
A short description of series [2]: Body weight loss in the SK-MEL-2 xenograft study. In kind it is in vivo, Mouse (Mus musculus) Athymic NCr-nu/nu. As for the experimental part: Tumor size and body weight were measured BIW beginning on the first day of treatment. Animals were terminated when their tumor reached approximately 2000 mm^3, and the study was terminated on Day 62 post treatment initiation.

The subject of series [3] is Calu-6 lung cancer model (KRAS Q61K). The series is described as follows: In vivo tumor efficacy, KRAS mutated Calu-6 human lung carcinoma model. To be noted: for TGI: Day 21. Details: species or system Mouse (Mus musculus) Athymic Balb/c Nude.
Series [4] can be described thus: Body weight loss in the Calu-6 xenograft study. In kind it is in vivo, Mouse (Mus musculus) Athymic Balb/c Nude. How it is done:
Each animal was inoculated with 2×10^6 Calu-6 tumor cells (in 0.1 mL, 1:1 with Matrigel) at the right flank for tumor model development. Body weight and the tumor growth were monitored twice weekly. Tumor size was measured to the nearest 0.1 mm using vernier caliper and applying the formula V=W^2×L/2, where V=volume, W=width, and L=length for the tumor xenograft. Xenografts were allowed to grow until they reached an average size of approximately 220 mm^3 after 14 days.
Tumor size and body weight were measured twice weekly beginning on the day of animal grouping. The study was terminated on Day 35 post treatment initiation.

The subject of series [5] is melanoma tumor cells which developed resistance to vemurafenib. The series is described as follows: Activity against vemurafenib-resistant melanoma tumor cells. Format: cell-based.
The test system of series [6] is N-Ras mutated SK-MEL-2 human melanoma xenograft. Kind of series: In vivo tumor efficacy, N-Ras mutated SK-MEL-2 human melanoma xenograft model. Details: species or system Mouse (Mus musculus) Athymic NCr-nu/nu. Particulars: Day 20.
Setting [7] is: Compound A 12.5 mg/kg PO QD Days 1-21.

The term TGI denotes how far tumour growth fell short of that in controls. On to `C[C@@H](NC(=O)c1ncnc(N)c1Cl)c1ncc(C(=O)Nc2cc(C(F)(F)F)c(Cl)cn2)s1` [Compound A, (R)-2-(1-(6-amino-5-chloropyrimidine-4-carboxamide)ethyl)-N-(5-chloro-4-(trifluoromethyl)pyridin-2-yl)thiazole-5-carboxamide], for which the “activity against tumor cells” value in series [1] and in series [5] was “active” throughout. Besides, the “Mean Maximum BWL” value is recorded as 1% (Days 3 in series [2] (Compound A 12.5 mg/kg PO QD Days 0-20, Days 3 and 10); 4% (Day 17) in series [2] (Compound A 50 mg/kg PO BIW, Day 17). Further, the ΔAUC is listed as 55.4 in series [3] (setting [7]) and 62.7 in series [3] (Compound A 50 mg/kg PO BIW). In addition, the values for the TGI in series [3] (setting [7]), in series [3] (Compound A 50 mg/kg PO BIW) and in series [6] (Compound A 50 mg/kg PO BIW) were 58.9%, 59.4% and 62.9%, respectively. Besides, the “Mean Maximum % BWL” value in series [4] (Compound A 12.5 mg/kg PO QD, Day 0 to Day 21) is given as 0%; in series [4] (Compound A 50 mg/kg PO BIW, Day 7), −0.1% (Day 7).

In the case of `CC(=O)O[C@@]12CO[C@@H]1C[C@H](O)[C@@]1(C)C(=O)[C@H](O)C3=C(C)[C@@H](OC(=O)[C@H](O)[C@@H](NC(=O)OC(C)(C)C)c4ccccc4)C[C@@](O)([C@@H](OC(=O)c4ccccc4)[C@H]21)C3(C)C` [docetaxel, reference compound], in series [2] (docetaxel 7.5 mg/kg IV QW, Day 14), the “Mean Maximum BWL” value is 15% (Day 14). For the same molecule, the values for the ΔAUC in series [3] (docetaxel 5 mg/kg IV QW) and in series [3] (docetaxel 7.5 mg/kg IV QW) were 9.0 and 18.4, respectively. The TGI in series [3] (docetaxel 5 mg/kg IV QW) is 5.2%; in series [3] (docetaxel 7.5 mg/kg IV QW) it was 17.7%; in series [6] (docetaxel 7.5 mg/kg IV QW) it was 74.9%. The “Mean Maximum % BWL” value in series [4] (docetaxel 5 mg/kg IV QW, Day 0 to Day 21) is recorded as 0%; in series [4] (docetaxel 7.5 mg/kg IV QW, Day 21), 2.5% (Day 21).
